The results in this text go back to PubChem BioAssay (NCI).

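Interpolation was linear, between the two tested concentrations surrounding the appropriate level; five concentrations were tested over 48 hours in 96-well plates. GI50 marks 50% less growth. TGI is the concentration that stops growth completely.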

Test systems include CAKI-1 renal; NCI-H23 lung; DU-145 prostate; LOX IMVI melanoma; A549 NSCLC; ACHN renal; 786-0 renal; HCC-2998 colon.
Common to all, as to experiment: DTP human tumour cell line panel, 48 h

By GI50 is commonly meant the concentration at which growth is held to half of that of the control. As usually defined, the TGI is the concentration giving total growth inhibition. For the compound `Clc1nccc2c(-c3csc(-c4c[nH]c5ccc(Br)cc45)n3)c[nH]c12`, the GI50 in the experiment with CAKI-1 renal is 1.96 µM; in the experiment on NCI-H23 lung, 2.42 µM; in the experiment with DU-145 prostate, 1.76 µM; in the experiment on LOX IMVI melanoma, 1.63 µM; in the experiment on A549 NSCLC, 3.83 µM; in the experiment on ACHN renal it was 2.02 µM. Moreover, the GI50 was 1.37 µM in the experiment with 786-0 renal and 2.22 µM with HCC-2998 colon. For the same compound, the TGI with CAKI-1 renal was 8.04 µM; in the experiment on NCI-H23 lung, 8.57 µM; in the experiment with DU-145 prostate, 14 µM; in the experiment with LOX IMVI melanoma it was 3.25 µM; with A549 NSCLC, 12.8 µM; in the experiment on ACHN renal, 12.6 µM. In addition, the values for the total growth inhibition concentration (TGI) in the experiment on 786-0 renal and in the experiment with HCC-2998 colon were 2.93 µM and 4.4 µM, respectively.
As for `CO[C@H]1C[C@@H]2CC[C@@H](C)[C@@](O)(O2)C(=O)C(=O)N2CCCC[C@H]2C(=O)O[C@H]([C@H](C)C[C@@H]2CC[C@@H](OC(=O)C(C)(CO)CO)[C@H](OC)C2)CC(=O)[C@H](C)/C=C(\C)[C@@H](O)[C@@H](OC)C(=O)[C@H](C)C[C@H](C)\C=C/C=C/C=C/1C`, the GI50 in the experiment on CAKI-1 renal is 0.0352 µM; in the experiment with NCI-H23 lung, 0.0866 µM; in the experiment on DU-145 prostate it was 0.045 µM; with LOX IMVI melanoma, 0.00435 µM; in the experiment with A549 NSCLC, 0.067 µM; with ACHN renal it was over 9.24 µM. Also, in the experiment on 786-0 renal, the GI50 was 0.0149 µM. Further, the TGI with CAKI-1 renal, with NCI-H23 lung, in the experiment on DU-145 prostate, in the experiment with LOX IMVI melanoma, with A549 NSCLC and in the experiment on ACHN renal was over 10 µM each time. Besides, the TGI in the experiment on 786-0 renal and in the experiment on HCC-2998 colon was over 10 µM in each case.
For the compound `CSc1ccc(C2=C(c3ccccc3)C(=O)OC2)cc1`, the GI50 in the experiment on CAKI-1 renal is 0.409 µM; in the experiment with NCI-H23 lung, 3.78 µM; in the experiment on DU-145 prostate it was 4.49 µM; in the experiment with LOX IMVI melanoma it was 0.385 µM; in the experiment with A549 NSCLC, 0.677 µM; in the experiment on ACHN renal, 0.517 µM. The GI50 is 1.21 µM with 786-0 renal and 0.309 µM in the experiment on HCC-2998 colon. Moreover, the TGI in the experiment on CAKI-1 renal is 10.1 µM; in the experiment on NCI-H23 lung it was over 41.1 µM; in the experiment with DU-145 prostate, over 100 µM; in the experiment on LOX IMVI melanoma, 38.7 µM; with A549 NSCLC, over 100 µM; in the experiment with ACHN renal, 33.4 µM. Besides, the TGI with 786-0 renal turned out to be 19.7 µM; in the experiment on HCC-2998 colon, 18.9 µM.
As to `COc1cc2cc(Oc3ccc(NC(=O)Nc4cc(C(F)(F)F)cc(C(F)(F)F)c4)cc3)c(C)nc2cc1OCCN1CCOCC1`, the GI50 in the experiment with CAKI-1 renal is 1.47 µM; in the experiment on NCI-H23 lung, 1.66 µM; in the experiment with DU-145 prostate it was 1.93 µM; in the experiment on LOX IMVI melanoma, 1.46 µM; with A549 NSCLC it was 1.72 µM; in the experiment on ACHN renal it was 1.53 µM. In addition, the GI50 with 786-0 renal is 1.28 µM; in the experiment on HCC-2998 colon it was 2.09 µM. For the same compound, the TGI came out at 5.68 µM in the experiment on CAKI-1 renal; 6.69 µM with NCI-H23 lung; 7.05 µM in the experiment on DU-145 prostate; 5.09 µM in the experiment on LOX IMVI melanoma; 7.23 µM with A549 NSCLC; 5.42 µM in the experiment with ACHN renal. The total growth inhibition concentration (TGI) in the experiment with 786-0 renal came out at 3.65 µM; with HCC-2998 colon, 6.97 µM.
On to `CCOCC1(COCC)CCC(c2[nH]ncc2CN(C)CCNC)CC1`, for which the GI50 in the experiment on CAKI-1 renal, with NCI-H23 lung, in the experiment with DU-145 prostate, with LOX IMVI melanoma, in the experiment on A549 NSCLC and in the experiment on ACHN renal was over 100 µM in each case. The GI50 in the experiment on 786-0 renal and with HCC-2998 colon was over 100 µM in each case. Further, the concentration for total growth inhibition (TGI) with CAKI-1 renal, in the experiment with NCI-H23 lung, in the experiment with DU-145 prostate, with LOX IMVI melanoma, with A549 NSCLC and with ACHN renal was over 100 µM each time. In addition, the TGI in the experiment with 786-0 renal and with HCC-2998 colon was over 100 µM in each case.
Take `COc1cc2oc(-c3cccc(C(=O)Nc4ccc(Cl)cc4)c3)cc(=O)c2c(OC)c1OC`: the GI50 in the experiment on CAKI-1 renal was 1.79 µM; in the experiment with NCI-H23 lung it was 3.6 µM; in the experiment on DU-145 prostate, 2.85 µM; in the experiment with LOX IMVI melanoma, 0.413 µM; in the experiment on A549 NSCLC, 3.56 µM; in the experiment with ACHN renal it was 3.17 µM. In addition, the values for the GI50 with 786-0 renal and with HCC-2998 colon were 2.53 µM and 3.05 µM, respectively. The TGI is 7.84 µM in the experiment on CAKI-1 renal; over 100 µM in the experiment on NCI-H23 lung; over 100 µM with DU-145 prostate; over 100 µM with LOX IMVI melanoma; over 100 µM with A549 NSCLC; over 100 µM with ACHN renal. Besides, the TGI in the experiment on 786-0 renal and in the experiment with HCC-2998 colon was over 100 µM each time.
As to `c1cc(N[C@@H]2CCNC2)nc(-c2cnc3ccc(-c4cn[nH]c4)cn23)c1`, the GI50 in the experiment on CAKI-1 renal was over 47.9 µM; in the experiment on NCI-H23 lung it was 5.07 µM; with DU-145 prostate it was 9.09 µM; with LOX IMVI melanoma it was 3.24 µM; in the experiment with A549 NSCLC it was 22.8 µM; in the experiment with ACHN renal, 19.2 µM. For the same compound, the GI50 is 10.6 µM with 786-0 renal and 9.95 µM with HCC-2998 colon. For the same compound, the TGI in the experiment on CAKI-1 renal is over 100 µM; in the experiment on NCI-H23 lung, 35.9 µM; in the experiment with DU-145 prostate, over 100 µM; in the experiment on LOX IMVI melanoma, 15.1 µM; with A549 NSCLC, over 100 µM; in the experiment with ACHN renal, over 100 µM. Further, the TGI with 786-0 renal is over 83.1 µM; in the experiment on HCC-2998 colon, 35.5 µM.
As to `O=C(CS(=O)(=O)c1nc2ccccc2nc1-c1ccccc1)Nc1ccc(F)cc1`, the GI50 in the experiment with CAKI-1 renal was over 100 µM; with NCI-H23 lung it was over 100 µM; in the experiment on DU-145 prostate, 36.1 µM; in the experiment on LOX IMVI melanoma, 36.7 µM; in the experiment on A549 NSCLC, over 100 µM; with ACHN renal, over 100 µM. Moreover, the GI50 in the experiment with 786-0 renal was over 100 µM; with HCC-2998 colon, 13.3 µM. Besides, the TGI with CAKI-1 renal, with NCI-H23 lung, in the experiment on DU-145 prostate, with LOX IMVI melanoma, in the experiment with A549 NSCLC and with ACHN renal was over 100 µM in each case. For the same compound, the TGI was over 100 µM in the experiment with 786-0 renal and 26.9 µM in the experiment with HCC-2998 colon.
In the case of `CN(C)c1ccc(/C=C\c2ccnc3ccccc23)cc1`, the GI50 was 10.2 µM in the experiment on CAKI-1 renal; 3.63 µM with NCI-H23 lung; 12.1 µM in the experiment on DU-145 prostate; 9.82 µM with LOX IMVI melanoma; 5.83 µM in the experiment with A549 NSCLC; 20.7 µM in the experiment on ACHN renal. Further, the values for the GI50 with 786-0 renal and with HCC-2998 colon were 6.03 µM and 6.04 µM, respectively. Also, the total growth inhibition concentration (TGI) is over 100 µM with CAKI-1 renal; 63.4 µM with NCI-H23 lung; over 88.5 µM with DU-145 prostate; over 100 µM in the experiment with LOX IMVI melanoma; over 100 µM in the experiment on A549 NSCLC; over 100 µM in the experiment on ACHN renal. Also, the TGI in the experiment with 786-0 renal was over 39.2 µM; with HCC-2998 colon, over 100 µM.
